The source of these data is US10654854B2 (INTRA-CELLULAR THERAPIES, INC., priority 2016, dated 2020).

Structures can show the parent of a compound that is named as a salt.

Data set [1] is described as follows: Dynamic Vapour Sorption (DVS). Type of data set: physicochemical. The note with it: for DVS total mass uptake: at 95 RH %; for hygroscopicity (assessment from DVS): from total mass uptake at 95 RH %; for DVS Hygroscopicity (%): scale-up synthesis batch. The method, then:
Dynamic Vapour Sorption (DVS): The Dynamic Vapour Sorption studies are performed using a Surface Measurement Systems Ltd. DVS-1 No Video, equipment #2126. The sample is loaded into a balance pan, typically 20-30 mg, and equilibrated at 0% RH. After the material was dried, the RH is increased with 10% per step for 1 hour per increment, ending at 95% RH. After completion of the sorption cycle, the sample was dried using the same method. The software used for data collection is DVSWin v3.01 No Video. Data analysis is performed using DVS Standard Analysis Suite v6.3.0 (Standard).

Data set [2] in a line: hygroscopicity and stability of salt forms (salt screen). The note with it: salt form. Type of data set: physicochemical. On the procedure:
In an effort to find new salts and polymorphs of ITI-007, an extensive salt screen was undertaken. […] Eventually, a toluenesulfonic acid addition salt (tosylate) was prepared, as described in WO 2009/114181, but no other stable salts were found. Finally, a major salt screen was carried out, wherein the free base compound was studied in different solvent systems and under different conditions, and then systematically screened using a selection of over 100 acids under different conditions and with different solvent, co-solvent and anti-solvent systems, to identify possible salt forms. Following extensive screening and experimentation, the following novel salts were discovered, characterized, and found to be reproducible and stable: oxalate, 4-aminosalicylate, and cyclamate.
(§1) Solubility of free base in various solvents is evaluated, and based on the results of the solubility range, suitable solvents are selected for the salt screen. The salt screen is divided into seven separate screens, using 90 different counter ions, six different solvents, and including four different crystallization methods, slurry experiments, cooling crystallization, evaporation and precipitation experiments. The counterions are selected based upon availability and potential suitability to form pharmaceutically acceptable acid addition salts. They include the class I, II and III acids identified in Stahl P. H., Wermuch C. G. (editors), Handbook of Pharmaceutical Salts, IUPAC (2008).

The subject of another data set is muscarinic. The note with it: cited from earlier work.
A further data set addresses H1 histaminergic (Homo sapiens, UniProt P35367). Conditions: cited from earlier work.
Data set [3] is described as follows: solubility of free base in water and organic solvents. Type of data set: physicochemical. Conditions: free base form; in water and in many organic solvents. On the procedure:
as §1

For another data set, the target named is T1, 5-HT2C (Homo sapiens, UniProt P28335).
T1 sequence (P28335 33-458): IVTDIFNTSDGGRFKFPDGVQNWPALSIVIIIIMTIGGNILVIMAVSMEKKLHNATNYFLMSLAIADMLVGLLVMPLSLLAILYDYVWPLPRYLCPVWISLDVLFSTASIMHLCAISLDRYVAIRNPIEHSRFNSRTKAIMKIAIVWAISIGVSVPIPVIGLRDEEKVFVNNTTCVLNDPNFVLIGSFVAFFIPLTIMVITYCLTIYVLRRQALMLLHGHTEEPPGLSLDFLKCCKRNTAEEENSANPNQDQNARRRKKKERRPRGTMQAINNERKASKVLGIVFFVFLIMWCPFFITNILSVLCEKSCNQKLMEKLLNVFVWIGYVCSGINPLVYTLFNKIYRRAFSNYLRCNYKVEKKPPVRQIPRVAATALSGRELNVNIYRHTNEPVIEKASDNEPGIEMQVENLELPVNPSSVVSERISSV
The note with it: cited from earlier work.

Sequence of H1 histaminergic (P35367 whole entry): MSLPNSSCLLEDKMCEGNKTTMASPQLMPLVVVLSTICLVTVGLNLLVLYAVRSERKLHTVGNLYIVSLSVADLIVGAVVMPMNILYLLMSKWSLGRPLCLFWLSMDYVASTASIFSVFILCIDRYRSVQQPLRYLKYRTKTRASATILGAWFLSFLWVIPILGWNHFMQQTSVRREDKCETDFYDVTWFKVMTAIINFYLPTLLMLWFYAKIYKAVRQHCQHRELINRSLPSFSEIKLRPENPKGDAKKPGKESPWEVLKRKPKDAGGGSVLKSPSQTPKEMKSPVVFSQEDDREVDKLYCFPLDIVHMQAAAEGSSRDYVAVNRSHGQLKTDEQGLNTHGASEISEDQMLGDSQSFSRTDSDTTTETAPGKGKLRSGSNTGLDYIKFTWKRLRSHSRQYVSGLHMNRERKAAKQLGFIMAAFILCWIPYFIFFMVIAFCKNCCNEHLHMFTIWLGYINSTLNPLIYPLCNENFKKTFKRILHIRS

In the case of `CN1CCN2c3c(cccc31)[C@@H]1CN(CCCC(=O)c3ccc(F)cc3)CC[C@@H]12` [oxalate salt, 1-(4-fluoro-phenyl)-4-((6bR,10aS)-3-methyl-2,3,6b,9,10,10a-hexahydro-1H,7H-pyrido[3′,4′:4,5]pyrrolo[1,2,3-de]quinoxalin-8-yl)-butan-1-one], in data set [1], the “DVS total mass uptake” value came out at 5%, the “hygroscopicity (assessment from DVS)” value is “moderately hygroscopic” and the “DVS Hygroscopicity (%)” value worked out at 5%. In addition, in data set [2], the stability result is “stable”.
With `CN1CCN2c3c(cccc31)[C@@H]1CN(CCCC(=O)c3ccc(F)cc3)CC[C@@H]12` [4-aminosalicylate salt, 1-(4-fluoro-phenyl)-4-((6bR,10aS)-3-methyl-2,3,6b,9,10,10a-hexahydro-1H,7H-pyrido[3′,4′:4,5]pyrrolo[1,2,3-de]quinoxalin-8-yl)-butan-1-one], in data set [1], the “DVS total mass uptake” value stood at 5%, the “hygroscopicity (assessment from DVS)” value was “moderately hygroscopic” and the “DVS Hygroscopicity (%)” value is 5%. Besides, in data set [2], the stability result is “stable”.
For `CN1CCN2c3c(cccc31)[C@@H]1CN(CCCC(=O)c3ccc(F)cc3)CC[C@@H]12` [cyclamate salt, 1-(4-fluoro-phenyl)-4-((6bR,10aS)-3-methyl-2,3,6b,9,10,10a-hexahydro-1H,7H-pyrido[3′,4′:4,5]pyrrolo[1,2,3-de]quinoxalin-8-yl)-butan-1-one], in data set [1], the “DVS total mass uptake” value is on record as 8% and the “hygroscopicity (assessment from DVS)” value is listed as “somewhat hygroscopic”. For the same compound, the “DVS Hygroscopicity (%)” value in data set [1] (listed as FP-212 cyclamate salt) is recorded as 8%. The stability entry in data set [2] is recorded as “stable”.
Consider `CN1CCN2c3c(cccc31)[C@@H]1CN(CCCC(=O)c3ccc(F)cc3)CC[C@@H]12` [ITI-007, 1-(4-fluoro-phenyl)-4-((6bR,10aS)-3-methyl-2,3,6b,9,10,10a-hexahydro-1H,7H-pyrido[3′,4′:4,5]pyrrolo[1,2,3-de]quinoxalin-8-yl)-butan-1-one], for which the “binding to receptors associated with cognitive and metabolic side effects” value in the data set on muscarinic, at H1 histaminergic and on 5-HT2C was “negligible binding” throughout. Further, the solubility result in data set [3] is on record as “poor solubility”.
